Columns and labels:
[1] = system: metastatic prostate cancer cell lines (LNCaP, DU145 and PC-3); assay: MTT cell viability assay after Ad.IL-24 infection with or without S1R agonist; assay type: cell-based, human
Source text: (§1) Referring to FIG. 1A, FIG. 1B and FIG. 1C, to test this hypothesis Ad.IL-24 was used to treat normal human immortalized epithelial cells (RWPE1), and three metastatic prostate cancer cell lines (LNCaP, DU145 and PC-3) in the presence or absence of the specific S1R agonist, (+)SKF-10047, and measured cell viability and induction of apoptosis by MTT, clonogenic, and AnnexinV-FITC/PI assays. (+)SKF-10047 inhibited Ad.IL-24-mediated killing in PC-3, LNCaP and DU145 cells.
In FIG. 1A, cells were infected with 100 pfu/cell of Ad.vector or Ad.IL-24, and treated with or without 10 μM (+)-SKF10047—a S1R agonist. Cell viability was determined by MTT assay 4 days post-infection. MTT absorbance of untreated control cells was set at 1 to determine relative number of viable cells. […] In FIG. 1B, cells were incubated in the absence or presence of 10 μM (+)-SKF10047 after infection with Ad.IL-24. Forty-eight hours post-infection, percentage of apoptosis was determined by staining with AnnexinV-FITC/PI. […] In FIG. 1C, cells were incubated in the absence or presence of 10 μM (+)-SKF10047 after infection with Ad.IL-24. […]
MTT Assays. […] Cell growth and viable cell numbers were monitored by 3-(4,5 dimethylthiazol-2-yl)-2,5-diphenyltetrazolium bromide (MTT) staining as described in Sauane M, Su Z Z, Dash R, et al. “Ceramide plays a prominent role in MDA-7/IL-24-induced cancer-specific apoptosis” J Cell Physiol. […]

[2] = system: metastatic prostate cancer cell lines (LNCaP, DU145 and PC-3); assay: AnnexinV-FITC/PI apoptosis assay after Ad.IL-24 infection with or without S1R agonist; assay type: cell-based, human; conditions: for apoptosis by Ad.IL-24 (summary statements): prostate cancer cells, effect of S1R agonist
Source text: as §1
(§2) In FIG. 1A, cells were infected with 100 pfu/cell of Ad.vector or Ad.IL-24, and treated with or without 10 μM (+)-SKF10047—a S1R agonist. Cell viability was determined by MTT assay 4 days post-infection. MTT absorbance of untreated control cells was set at 1 to determine relative number of viable cells. […] In FIG. 1B, cells were incubated in the absence or presence of 10 μM (+)-SKF10047 after infection with Ad.IL-24. Forty-eight hours post-infection, percentage of apoptosis was determined by staining with AnnexinV-FITC/PI. […] In FIG. 1C, cells were incubated in the absence or presence of 10 μM (+)-SKF10047 after infection with Ad.IL-24. Cells were subjected to clonogenic assay for 2 weeks. Results shown are an average of three independent experiments ±SD.
Annexin V binding assays. Cells were trypsinized, washed once with complete medium and PBS, resuspended in 0.5 ml of binding buffer containing 2.5 mmol/L CaCl2, and stained with allophycocyanin-labeled Annexin V (Becton Dickinson Biosciences, Palo Alto, Calif.) and propidium iodide (PI) for 15 min at room temperature. Flow cytometry assays were performed as described in Sauane M, Su Z Z, Dash R, et al. “Ceramide plays a prominent role in MDA-7/IL-24-induced cancer-specific apoptosis” J Cell Physiol. 2010 March; 222(3):546-55.

[3] = system: metastatic prostate cancer cell lines (LNCaP, DU145 and PC-3); assay: Clonogenic (colony formation) assay after Ad.IL-24 infection with or without S1R agonist; assay type: cell-based, human; conditions: Ad.IL-24 plus 10 μM (+)-SKF10047; 2 weeks
Source text: as §1, §2
Colony formation assays. Cells were infected with 100 pfu/cell with Ad.vector or Ad.IL-24. The next day, 200 to 500 cells were seeded to determine colony-forming ability. […]

[4] = system: BiP, CHOP, and p-eIF2a proteins; assay: Western blot analysis of ER stress markers; assay type: cell-based; conditions: 100 pfu/cell Ad.IL-24 plus 10 μM (+)-SKF10047; 48 h
Description: Cells were infected with 100 pfu/cell of Ad.vector or Ad.IL-24, and treated with or without 10 μM (+)-SKF10047 (SKF) for indicated times. In FIG. 2A, changes in BiP, CHOP, and p-eIF2a proteins were evaluated by Western blot analysis 48 h after indicated treatments. […] Up-regulation by IL-24 of several ER stress markers is shown, including p-eIF2a, CHOP, and BiP, were inhibited by treatment with (+)SKF-10047.
Western Blot Analysis. Protein extracts were prepared with RIPA buffer containing a mixture of protease inhibitors as described in Sauane M, Su Z Z, Dash R, et al. “Ceramide plays a prominent role in MDA-7/IL-24-induced cancer-specific apoptosis” J Cell Physiol. 2010 March; 222(3):546-55. Fifty micrograms of protein was applied to a 12% SDS/PAGE and transferred to nitrocellulose membranes. The membranes were probed with polyclonal or monoclonal antibodies to IL-24, p-eIF2a, BiP, CHOP, Sigma 1 Receptor, and beta-actin.

[5] = system: prostate DU145; assay: Calcium imaging (Fura-2), cytosolic calcium; assay type: cell-based, human; conditions: Ad.IL-24 plus 10 μM (+)-SKF10047, 12 hours
Description: FIG. 2B depicts a ratio of calcium ratios for cells infected with 100 pfu/cell of Ad.vector or Ad.IL-24, and treated with or without 10 μM (+)-SKF10047. The ratios are the levels cytosolic calcium at T=0 and T=12 hours. A determination was made concerning whether Ad.IL-24 caused any changes in the cytosolic levels of Ca^++ in prostate cancer cells and if Ca^++ mobilization is S1R-dependent after Ad.IL-24 infection. Ad.IL-24 infection increased cytosolic Ca^++ levels in prostate DU145 within 12 hours. The increase in Ca^++ was blocked by S1R agonist (+)-SKF10047.
Calcium imaging. For Calcium (Ca^++) imaging, cells were plated in 35 mm glass bottom petri dishes (MatTek) and allowed to attach for 12 h prior to treatment(s). Inhibitors were added 4 h after infection with adenovirus. After 12 h, cells were then rinsed with a Ringer's solution maintained at 37° C. Cells were then incubated in Ringer's solution containing 0.5 μM Fura-2 tetra-acetoxymethyl ester (Fura-2) (Molecular Probes), 10% Pluronic F127 and 250 μm sulfinpyrazone (Sigma-Aldrich, Inc) for 40 min at 22° C. Fura-2 was excited by alternating 340 and 380 nm light and images were obtained every 50 ms as a measure of Ca^++ concentration. Background intensity was zero. […]

[6] = system: DU-145 cells; assay: Reactive oxygen species (ROS) generation, DCFH-DA fluorescence; assay type: cell-based, human; conditions: Ad.IL-24 plus 10 μM (+)SKF-10047 for 24 h
Description: Intracellular ROS levels were measured with 10 μM DCF-DA 30 min after treatments. The results are expressed as the mean±S.D. of three independent experiments. The time course of mitochondrial changes (ROS generation) were determined after treatment of DU145 cells with Ad.IL-24. Cells were infected with Ad.IL-24, collected at 24 h, and stained for ROS production with dichlorofluorescin diacetate (DCFH-DA). […] Taken together, the inhibition by an S1R agonist of IL-24-mediated ER stress, Ca^++ mobilization and ROS production, further strengthen the hypothesis that IL-24 action in cancer cells is mediated by an antagonistic effect of IL-24 on S1R.
Assessment of reactive oxygen species (ROS) generation. DU-145 cells were seeded in 96-well plates at a concentration of 1×10^4 cells/well and were infected with Ad.IL-24 for 12 h. The cell cultures were treated with 10 μM 2,7-dichloro-fluorescein diacetate (DCFH-DA; Sigma-Aldrich, St. Louis, Mo.) in PBS for 30 min After incubation, the media was discarded, and the cells were washed with PBS. The fluorescence intensity was determined using a fluorescence plate reader at 485 nm for excitation and 530 nm for emission.

[7] = biological target: T1, S1R (Homo sapiens, UniProt Q99720); assay: Immunofluorescence co-localization of IL-24 and S1R; assay type: cell-based; conditions: DU145 cells infected with Ad.IL-24; 24 h; confocal immunofluorescence
T1 construct: DU-145 cells were infected with Ad.IL-24; endogenous in cells; host or cells: DU145 cells (ATCC), infected with Ad.IL-24 or Ad.vector
Description: In FIG. 3A and FIG. 3B, comparative co-localization of IL-24 and S1R proteins was analyzed in DU145 cells after infection with the Ad.IL-24 virus. […] DU-145 cells were infected with Ad.IL-24. After 24 h, cells were fixed and IL-24 and S1R proteins were detected by immunofluorescence using anti-IL-24 and anti-S1R antibodies. The analysis of co-localization of IL-24 and S1R was performed using a DMI6000B inverted confocal microscope with TCS SP5 system (Leica Microsystems CMS). Without wishing to be bound to any particular theory, S1R is believed to interact with IL-24.
Immunofluorescence. Cells were seeded onto chamber slides (Falcon; BD Biosciences, San Jose, Calif.) and maintained in DMEM with 10% fetal bovine calf serum, 24 hours postinfection, cells were fixed with 2% paraformaldehyde, permeabilized by 0.1% Triton X-100, and then incubated with primary antibodies: IL-24, and S1R. Controls were incubated with only the secondary antibodies under the same experimental conditions.

[8] = biological target: T1, S1R; assay: Co-immunoprecipitation of S1R with IL-24; assay type: binding; conditions: 100 pfu/cell Ad.IL-24, 48 hours
Description: In FIG. 3A, DU145 cells were infected with 100 pfu/cell of Ad.vector or Ad.IL-24 and immunoprecipitation analysis was done 48 hours later using S1R antibody.
In FIG. 3B, DU-145 cells were infected with 100 pfu/cell of Ad.vector or Ad.IL-24 and immunoprecipitation analysis was done 48 hours later using IL-24 antibody.
Co-immunoprecipitation of S1R with IL-24. Cells were infected with Ad.vector or Ad.IL-24. After 48 hours, protein was extracted from subconfluent cultures using lysis buffer (Pierce, Rockford, Ill.) containing 1 mM phenylmethlsulfonylfluoride (Sigma-Aldrich, Inc) and quantified using the BCA protein assay kit (Pierce, Rockford, Ill.). Antibodies were conjugated to Protein-G beads according, the Sigma Protein-G Immunoprecipitation Kit manufacturer's instructions (Sigma-Aldrich, Inc). Western blot analysis was done as described before using the following primary antibodies at 1:1,000 dilutions: anti-IL-24, and anti-S1R. Secondary antibodies specific for heavy chain of immunoglobulin G (IgG) were used as the light chain of IgG interfered with detection of IL-24 because of similar size.

T1 sequence (Q99720 whole entry): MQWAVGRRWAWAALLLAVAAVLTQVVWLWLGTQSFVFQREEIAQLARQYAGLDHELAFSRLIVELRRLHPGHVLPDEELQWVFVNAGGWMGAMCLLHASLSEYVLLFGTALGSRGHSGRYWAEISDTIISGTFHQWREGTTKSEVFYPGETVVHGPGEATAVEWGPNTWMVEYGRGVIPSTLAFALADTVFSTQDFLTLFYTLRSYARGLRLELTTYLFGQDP

Row | Molecule | cytotoxic effect of Ad.IL-24, cell viability by MTT (FIG. 1A) ([1]; 100 pfu/cell Ad.IL-24 plus 10 μM (+)-SKF10047, 4 days post-infection) | Ad.IL-24-mediated killing ([1]; PC-3, LNCaP and DU145 cells, viability and apoptosis by MTT, clonogenic and AnnexinV-FITC/PI assays, effect of S1R agonist) | cytotoxic effect of Ad.IL-24, percentage of apoptosis by AnnexinV-FITC/PI (FIG. 1B) ([2]; Ad.IL-24 plus 10 μM (+)-SKF10047, 48 hours post-infection) | apoptosis by Ad.IL-24 (summary statements) [2] | apoptosis by Ad.IL-24 (summary statements) ([2]; listed as (+) SK-10047) | cytotoxic effect of Ad.IL-24, clonogenic assay (FIG. 1C) [3] | Up-regulation by IL-24 of ER stress markers p-eIF2a, CHOP, and BiP (FIG. 2A) [4] | increase in Ca++ after Ad.IL-24 infection (FIG. 2B) [5] | Ad.IL-24 increased ROS (FIG. 2C) [6] | co-localization with S1R [7] | interaction with S1R: immunoprecipitation using anti-S1R antibody, immunoblotting with anti-IL-24 antibody (FIG. 3A) ([8]; DU145 cells) | interaction with S1R: immunoprecipitation using anti-IL-24 antibody, probed with anti-S1R antibody (FIG. 3B) ([8]; DU-145 cells)
1 | (+)-SKF10047 | substantially negated | inhibited | substantially negated | inhibits | blocks | substantially negated | inhibited | blocked | inhibited |  |  | 
2 | IL-24: member of the IL-10 cytokine family, immunomodulatory cytokine generated from Ad.IL-24 infection (protein, UniProt Q13007 52-206, looked up) Interleukin-24: QEFHFGPCQVKGVVPQKLWEAFWAVKDTMQAQDNITSARLLQQEVLQNVSDAESCYLVHTLLEFYLKTVFKNYHNRTVEVRTLKSFSTLANNFVLIVSQLQPSQENEMFSIRDSAHRRFLLFRRAFKQLDVEAALTKALGEVDILLTWMQKFYKL |  |  |  |  |  |  |  |  |  | co-localized | physical interaction | coimmunoprecipitated

Source: patent US9395375B2, “Method of treating sigma 1 receptor-expressing tumors with interleukin 24” (Research Foundation of the City University of New York, priority 2013, dated 2016)
